For series [1], the target named is LCK tyrosine kinase (Homo sapiens, UniProt P06239, C224D/P223M). Nature of the series: LCK spectrophotometric assay. The series is classed as biochemical. As to the method: The spectrophotometric assay was carried out as described above for VEGF-R2, except for the following changes in concentration: LCK = 60 nM, MgCl2 = 0 mM, poly(E4Y1) = 20 mM.
Series [2] has as its target human FGF-R1 (Homo sapiens, UniProt P11362, C488A/C584S/L457V). Nature of the series: FGF-R spectrophotometric assay. The series is classed as biochemical. As to the method: The spectrophotometric assay was carried out as described above for VEGF-R2, except for the following changes in concentration: FGF-R = 50 nM, ATP = 2 mM, and poly(E4Y1) =15 mM.
Series [3] deals with human umbilical vein endothelial cells (HUVEC). Nature of the series: HUVEC proliferation assay (VEGF-stimulated, MTT). The series is classed as cell-based. Particulars: for IC50: Homo sapiens, HUVEC, Table 1. As to the method: This assay determines the ability of a test compound to inhibit the growth factor-stimulated proliferation of human umbilical vein endothelial cells ("HUVEC"). HUVEC cells (passage 3-4, Clonetics, Corp.) were thawed into EGM2 culture medium (Clonetics Corp) in T75 flasks. Fresh EGM2 medium was added to the flasks 24 hours later. Four or five days later, cells were exposed to another culture medium (F12K medium supplemented with 10% fetal bovine serum (FBS), 60 µg/mL endothelial cell growth supplement (ECGS), and 0.1 mg/mL heparin). Exponentially-growing HUVEC cells were used in experiments thereafter. Ten to twelve thousand HUVEC cells were plated in 96-well dishes in 100 µl of rich, culture medium (described above). The cells were allowed to attach for 24 hours in this medium. The medium was then removed by aspiration and 105 µl of starvation media (F12K+1% FBS) was added to each well. After 24 hours, 15 µl of test agent dissolved in 1% DMSO in starvation medium or this vehicle alone was added into each treatment well; the final DMSO concentration was 0.1%. One hour later, 30 µl of VEGF (30 ng/mL) in starvation media was added to all wells except those containing untreated controls; the final VEGF concentration was 6 ng/mL. Cellular proliferation was quantified 72 hours later by MTT dye reduction, at which time cells were exposed for 4 hours MTT (Promega Corp.).

Where [4] appears, read: Table 1, compound concentration 1 µM, read-out: FGF-P* (% inhibition).
Setting [5] is: Table 1, compound concentration 1 µM, read-out: Lck-P* (% inhibition).
[6] abbreviates: mouse, in vivo, ip, 25 mg/kg, pH 2.3.
Setting [7] is: mouse, in vivo, po, 50 mg/kg, pH 2.3.
The mark [8] stands for this setting: mouse, in vivo, po, 25 mg/kg, pH 2.3.
Setting [9] is: PO, 25 mg/kg, vehicle PEG400:H2O pH 2.3 30:70.

Read-outs that look alike come from different tables or passages of the source. Bounds are passed on as bounds.

Chain of human FGF-R1 (P11362 456-766 L457V/C488A/C584S): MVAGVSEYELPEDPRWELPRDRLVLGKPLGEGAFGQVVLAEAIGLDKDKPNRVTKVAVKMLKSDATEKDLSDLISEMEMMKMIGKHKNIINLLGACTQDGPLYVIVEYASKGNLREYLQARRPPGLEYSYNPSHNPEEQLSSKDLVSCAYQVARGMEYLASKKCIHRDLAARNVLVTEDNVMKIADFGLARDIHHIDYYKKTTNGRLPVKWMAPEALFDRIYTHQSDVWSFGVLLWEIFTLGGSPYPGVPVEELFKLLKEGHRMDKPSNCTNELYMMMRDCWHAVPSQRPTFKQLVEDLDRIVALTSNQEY
Chain of LCK tyrosine kinase (P06239 223-509 P223M/C224D): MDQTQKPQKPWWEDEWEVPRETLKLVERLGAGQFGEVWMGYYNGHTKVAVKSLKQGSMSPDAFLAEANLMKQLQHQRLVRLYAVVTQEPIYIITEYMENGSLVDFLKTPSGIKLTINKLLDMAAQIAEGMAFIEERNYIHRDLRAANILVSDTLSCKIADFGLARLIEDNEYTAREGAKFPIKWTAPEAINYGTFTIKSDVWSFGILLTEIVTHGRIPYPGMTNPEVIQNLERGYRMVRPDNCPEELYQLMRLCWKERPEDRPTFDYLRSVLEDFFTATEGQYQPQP

Usually inhibition stands for the percentage by which the read-out fell short of the control. For `C=CCOc1cc(-c2ccc3c(/C=C/c4ccc(OC)c(OC)c4)n[nH]c3c2)ccc1O` [1(c), 3-[E-2-(3,4-Dimethoxy-phenyl)vinyl]-6-(3-allyloxy-4-hydroxyphenyl)-1H-indazole], in series [1] (read-out: Lck-P* (% inhibition)), the inhibition at 1 µM was found to be 46%.

The Ki is the dissociation constant of the complex between target and ligand, obtained from inhibition or displacement. In the case of `COc1cc(-c2ccc3c(-c4ccccc4)n[nH]c3c2)ccc1O` [2(b), 3-phenyl-6-(3-methoxy-4-hydroxy-phenyl)-1H-indazole], the inhibition constant Ki in series [2] (read-out: FGF-P* (Ki, cell in µM), Table 1) stood at 228 µM.

By IC50 is commonly meant the concentration that inhibits the measured activity by half. As to `Oc1cccc(Oc2ccc3c(/C=C/c4ccccc4)n[nH]c3c2)c1` [9(a), 3-(E-styryl)-6-[3-hydroxyphenoxy]-1H-indazole], the 50% inhibitory concentration (IC50) in series [3] (read-out: HUVEC IC50) was 870 nM.

Take `Cc1cnc(C(=O)Nc2cccc(N(C)c3ccc4c(/C=C/c5ccccc5)n[nH]c4c3)c2)s1` [12(d), 5-Methyl-thiazole-2-carboxylic acid {3-[methyl-(3-styryl-1H-indazol-6-yl)-amino]-phenyl)-amide]: the inhibition at 1 µM came out at 61% in series [2] (setting [4]) and 31% in series [1] (setting [5]). The IC50 in series [3] (read-out: HUVEC IC50) turned out to be 8.1 nM.

Take `CN(C)c1cccc(C(=O)Nc2cccc(N(C)c3ccc4c(/C=C/c5ccc6c(c5)OCO6)n[nH]c4c3)c2)c1` [16(c), N-(3-{[3-(2-Benzo[1,3]dioxol-5-yl-vinyl)-1H-indazol-6-yl]-methyl-amino}-phenyl)-3-dimethylamino-benzamide]: in series [3] (read-out: HUVEC IC50), the IC50 was in the range of 100 to 1000 nM.

As for `CN(c1cccc(NC(=O)c2ccc(O)c(C(C)(C)C)c2)c1)c1ccc2c(/C=C/c3ccc4c(c3)OCO4)n[nH]c2c1` [16(f)], in series [3] (read-out: HUVEC IC50), the IC50 is above 30 nM.

On to `Cc1cncc(C(=O)Nc2cccc(C(=O)c3ccc4c(/C=C/c5ccccc5)n[nH]c4c3)c2)c1` [19(e), 6-[3-(5-methylpyridin-3-ylcarboxamide)benzoyl]-3-E-styryl-1H-indazole], for which the IC50 in series [3] (read-out: HUVEC IC50) was above 300 nM.

For `C=C(c1cccc(NC(=O)OCc2ccccc2)c1)c1ccc2c(/C=C/c3ccccc3)n[nH]c2c1` [22(c)], the half-maximal inhibitory concentration (IC50) in series [3] (read-out: HUVEC IC50) worked out at 38 nM.

Consider `COc1cc(O)ccc1-c1ccc2c(-c3nc4ccccc4[nH]3)n[nH]c2c1` [24(d), 3-1H-Benzoimidazol-2-yl-6-(4-hydroxy-2-methoxyphenyl)-1H-indazole], for which the inhibition at 1 µM is 66% in series [2] (read-out: FGF* (% inhibition)) and 51% in series [1] (read-out: Lck* (% inhibition)).

For `Cc1cc(C(=O)Nc2cccc(C(=O)c3ccc4c(/C=C/c5ccccn5)n[nH]c4c3)c2)on1` [41 (m)], under setting [6], the AUCleast turned out to be 1864 ng·h/mL and the T1/2 worked out at 2.3 h. Moreover, under setting [7], the AUCleast came out at 9 ng·h/mL.

`CCc1cc(C(=O)Nc2cccc(C(=O)c3ccc4c(/C=C/c5ccccn5)n[nH]c4c3)c2)n(C)n1` [41 (v)]: under setting [8], the AUCleast amounted to 10949 ng·h/mL and the T1/2 was 4.4 h.

As to `CC(C)COC(=O)Nc1cccc(C(=O)c2ccc3c(/C=C/c4ccccn4)n[nH]c3c2)c1` [41 (y)], under setting [9], the AUCleast entry was “Blq”, the Cmax entry was “Blq” and the “Cmin (7 hr conc.)” value was “blq”.

Under setting [6], `O=C(Nc1cccc(C(=O)c2ccc3c(/C=C/c4ccccn4)n[nH]c3c2)c1)c1ccccc1` [42 (a)] came in with an AUCleast of 19899 ng·h/mL and a T1/2 of 5.0 h. In addition, under setting [7], the AUCleast was 8384 ng·h/mL and the T1/2 stood at 2.0 h.

`O=C(Nc1cccc(C(=O)c2ccc3c(-c4nc5ccccc5[nH]4)n[nH]c3c2)c1)c1ccccc1` [42 (b)]: under setting [6], the AUCleast was determined as 3207 ng·h/mL and the T1/2 came to 3.0 h. Under setting [7], the AUCleast was determined as 4747 ng·h/mL and the T1/2 was 3.0 h.

For the compound `O=C(Nc1cccc(C(=O)c2ccc3c(-c4nc5cccnc5[nH]4)n[nH]c3c2)c1)c1ccccc1` [42 (d)], under setting [6], the AUCleast was found to be 1774 ng·h/mL and the T1/2 was 1.4 h. Under setting [7], this compound had an AUCleast of 46 ng·h/mL.

As for `O=C(Nc1cccc(C(=O)c2ccc3c(/C=N/n4cccc4)n[nH]c3c2)c1)c1ccccc1` [45 (b)], under setting [6], the AUCleast was found to be 11361 ng·h/mL and the T1/2 is 2.0 h. Under setting [7], the AUCleast was determined as 1636 ng·h/mL and the T1/2 amounted to 3.0 h.

In the case of `CCn1nc(C)cc1C(=O)Nc1cc(Nc2ccc3c(/C=C/c4ccccn4)n[nH]c3c2)c(F)cc1C` [48 (a)], the AUCleast stood at 27000 ng·h/mL under setting [6] and 26636 ng·h/mL under setting [8].

With `Cc1cc(C(=O)Nc2cc(Nc3ccc4c(/C=C/c5ccccn5)n[nH]c4c3)c(F)cc2C)n(C)n1` [48 (b)], under setting [8], the AUCleast turned out to be 2191 ng·h/mL and the T1/2 worked out at 4 h.

In turn, `Cc1cc(C(=O)Nc2cc(Nc3ccc4c(/C=C/c5ccccn5)n[nH]c4c3)ccc2F)n(C)n1` [49 (a)] showed an AUCleast under setting [8] of 712 ng·h/mL.

Under setting [8], `Cc1cc(C(=O)Nc2cc(Nc3ccc4c(/C=C/c5ccccn5)n[nH]c4c3)ccc2C)n(C)n1` [49 (b)] came in with an AUCleast of 33750 ng·h/mL.

Take `CCn1nc(C)cc1C(=O)Nc1cccc(C(=O)c2ccc3c(/C=C/c4ccccn4)n[nH]c3c2)c1.Cl` [59 (a)]: the AUCleast is, setting by setting: (mouse, in vivo, po, 8 mg/kg) 7707 ng·h/mL; (mouse, in vivo, po, 40 mg/kg) 57240 ng·h/mL; (mouse, in vivo, po, 200 mg/kg) 156153 ng·h/mL. Moreover, the T1/2 was 1.5 h (mouse, in vivo, po, 8 mg/kg); 2.4 h (mouse, in vivo, po, 40 mg/kg); 9.4 h (mouse, in vivo, po, 200 mg/kg).

Under “mouse, in vivo, po, 50 mg/kg”, `Cc1cc(C(=O)Nc2cccc(C(=O)c3ccc4c(/C=C/c5ccccn5)n[nH]c4c3)c2)n(C)n1.Cl` [59 (b)] showed an AUCleast of 276467 ng·h/mL.

As to `CCn1nc(C)cc1C(=O)Nc1cc(Nc2ccc3c(/C=C/c4ccccn4)n[nH]c3c2)c(F)cc1C.Cl` [59 (c)], the AUCleast (mouse, in vivo, po, 25 mg/kg) came to 327135 ng·h/mL.

With `Cc1cc(C(=O)Nc2cc(Nc3ccc4c(/C=C/c5ccccn5)n[nH]c4c3)ccc2F)n(C)n1.Cl` [59 (d)], the AUCleast is above 24696 ng·h/mL (mouse, in vivo, po, 8 mg/kg); above 32297 ng·h/mL (mouse, in vivo, po, 40 mg/kg); above 123206 ng·h/mL (mouse, in vivo, po, 200 mg/kg).

As for `CCn1nc(C)cc1C(=O)Nc1cccc(Oc2ccc3c(/C=C/c4ccccn4)n[nH]c3c2)c1.Cl` [59 (e)], where the note is “mouse, in vivo, po, 25 mg/kg”, the AUCleast amounted to 12510 ng·h/mL and the T1/2 was 21 h.

For `NC(=O)c1ccccc1Sc1ccc2c(/C=C/c3ccccn3)n[nH]c2c1` [H-X1], the “% inhibition of the proliferation of HUVEC, 0.5 nM” value in series [3] (Library Table II, Y = S (reference Example), nominal concentration 0.5 nM, crude library reaction mixtures, >50% considered significant) turned out to be 9%. In addition, in series [3] (Library Table II, Y = S (reference Example), nominal concentration 2 nM, crude library reaction mixtures, >50% considered significant), the “% inhibition of the proliferation of HUVEC, 2 nM” value is 30%.

For `COc1cc(O)ccc1-c1ccc2c(-c3nc4c(SCCO)cccc4[nH]3)n[nH]c2c1` [Reference Example 25(f), 3-[4-(2-hydroxyethylsulfanyl)-1H-benzoimidazol-2-yl)-6-(2-methoxy-4-hydroxyphenyl)-1H-indazole], the results for the inhibition at 1 µM in series [2] (read-out: FGF* (% inhibition)) and in series [1] (read-out: Lck* (% inhibition)) were 56% and 58%, respectively.

Take `CNC(=O)c1cccc2[nH]c(-c3n[nH]c4cc(-c5ccc(O)cc5OC)ccc34)nc12` [Reference Example 25(j), 3-(4-methylcarbamoyl-1H-benzoimidazol-2-yl)-6-(2-methoxy-4-hydroxy-phenyl)-1H-indazole]: the inhibition at 1 µM in series [2] (read-out: FGF* (% inhibition)) came out at 70%.

Regarding `CC(=O)N1CCC(C(=O)Nc2cccc(Oc3ccc4c(/C=C/c5ccc(Cl)cc5)n[nH]c4c3)c2)CC1` [Reference Example 30(b), 6-[3-(1-acetylpiperidin-4-ylcarboxamido)phenoxy]-3-E-[2-(4-chlorophenyl)ethenyl]-1H-indazole], the IC50 in series [3] (read-out: HUVEC IC50) amounted to 90 nM.

Regarding `O=C(Nc1cccc(Oc2ccc3c(/C=C/c4ccccc4)n[nH]c3c2)c1)c1cccc2[nH]ccc12` [Reference Example 30(d), 6-[3-(indol-4-ylcarboxamido)phenoxy]-3-E-stryrylindazole], the IC50 in series [3] (+ albumin, read-out: HUVEC + albumin IC50) is 3.8 nM.

With `CC(C)(C)c1ccc(C(=O)Nc2cccc(C(=O)c3ccc4c(/C=C/c5ccccn5)n[nH]c4c3)c2)cc1` [Reference Example 41(s), 6-[3-(4-t-butylbenzamido)benzoyl}-3-E-[2-(pyridin-2-yl)ethenyl]-1H-indazole], the inhibition at 1 µM in series [2] (setting [4]) came to 86%; in series [1] (setting [5]), 53%.

The values above are taken from patent publication EP1614683B1, “Indazole compounds and pharmaceutical compositions for inhibiting protein kinases, and methods for their use” (priority 1999, dated 2001).
